Reference: US6972286B2, “Oxazolidinones having a benzannulated 6- or 7-membered heterocycle” (Pharmacia and Upjohn Company, priority 2000, dated 2005)
≈ marks a conversion by molar mass, not a printed value.

Assays:
[1] = tested on: Streptococcus pneumoniae; experiment: Minimum inhibitory concentration (MIC) by agar dilution; assay type: cell-based; details: in vitro, agar dilution (NCCLS 1993), Streptococcus pneumoniae strain SPNE 9912; read-out: Antibacterial Activity Minimum Inhibitory Concentration SPNE 9912
Description: The oxazolidinone antibacterial agents of this invention have useful activity against a variety of organisms. The in vitro activity of compounds of this invention can be assessed by standard testing procedures such as the determination of minimum inhibitory concentration (MIC) by agar dilution as described in “Approved Standard. Methods for Dilution Antimicrobial Susceptibility Tests for Bacteria That Grow Aerobically”, 3rd. ed., published 1993 by the National Committee for Clinical Laboratory Standards, Villanova, Pa. USA.

Row | MIC [1] [µg/mL] | melting point | SMILES
1 | 1 (≈ 3.26 µM) | 112 to 114 °C (dec.) | CC(=O)NC[C@H]1CN(c2ccc3c(c2)CCSC3)C(=O)O1 [Example 10, (−)-N-[[(5S)-3-(3,4-Dihydro-1H-2-benzothiopyran-6-yl)-2-oxo-5-oxazolidinyl]methyl]acetamide]
2 | 0.25 (≈ 0.775 µM) | 112 to 114 °C (dec.) | CC(=S)NC[C@H]1CN(c2ccc3c(c2)CCSC3)C(=O)O1 [Example 11, (+)-N-[[(5S)-3-(3,4-Dihydro-1H-2-benzothiopyran-6-yl)-2-oxo-5-oxazolidinyl]methyl]ethanethioamide]
3 | 1 (≈ 2.82 µM) | 187 °C (dec.) | CC(=S)NC[C@H]1CN(c2ccc3c(c2)CCS(=O)(=O)C3)C(=O)O1 [Example 12, (+)-N-[[(5S)-3-(3,4-Dihydro-2,2-dioxido-1H-2-benzothiopyran-6-yl)-2-oxo-5-oxazolidinyl]methyl]ethanethioamide]
4 | 1 (≈ 3.26 µM) | 165 °C (dec.) | CC(=S)NC[C@H]1CN(c2ccc3c(c2)COCC3)C(=O)O1 [Example 13, (+)-N-[[(5S)-3-(3,4-Dihydro-1H-2-benzopyran-7-yl)-2-oxo-5-oxazolidinyl]methyl]ethanethioamide]
5 | 0.5 (≈ 1.15 µM) |  | CSc1nnc(N2CCc3ccc(N4C[C@H](CNC(C)=O)OC4=O)cc3CC2)s1 [Example 43, N-({(5S)-3-[3-(5-Methylthio-1,3,4-thiadiazol-2-yl)-1,2,4,5-tetrahydro-1H-3-benzazepin-7-yl]-2-oxo-1,3-oxazolidin-5-yl}methyl)acetamide]
6 | 1 (≈ 2.49 µM) |  | CC(=O)NC[C@H]1CN(c2ccc3c(c2)CCN(c2nnc(C)s2)CC3)C(=O)O1 [Example 44, N-({(5S)-3-[3-(5-Methyl-1,3,4-thiadiazol-2-yl)-1,2,4,5-tetrahydro-1H-3-benzazepin-7-yl]-2-oxo-1,3-oxazolidin-5-yl}methyl)acetamide]
7 | 0.5 (≈ 1.16 µM) |  | CC(=O)NC[C@H]1CN(c2ccc3c(c2)CCN(c2nnc(NC=O)s2)CC3)C(=O)O1 [Example 45, N-[((5S)-3-{3-[5-(Formylamino)-1,3,4-thiadiazol-2-yl]-1,2,4,5-tetrahydro-1H-3-benzazepin-7-yl}-2-oxo-1,3-oxazolidin-5-yl)methyl]acetamide]
8 | 0.5 (≈ 1.09 µM) |  | CC(=O)NC[C@H]1CN(c2ccc3c(c2)CCN(c2nnc(NC(=O)CO)s2)CC3)C(=O)O1 [Example 46, N-[5-(7-{(5S)-5-[(Acetylamino)methyl]-2-oxo-1,3-oxazolidin-3-yl}-1,2,4,5-tetrahydro-3H-3-benzazepin-3-yl)-1,3,4-thiadiazol-2-yl]-2-hydroxyacetamide]
9 | 2 (≈ 6.24 µM) |  | CC(=O)NC[C@H]1CN(c2ccc3c(c2)CCSCC3)C(=O)O1 [Example 47, N-[[(5S)-2-Oxo-3-(1,2,4,5-tetrahydro-3-benzothiepin-7-yl)-5-oxazolidinyl]methyl]acetamide]
10 | 8 (≈ 22.7 µM) |  | CC(=O)NC[C@H]1CN(c2ccc3c(c2)CCS(=O)(=O)CC3)C(=O)O1 [Example 48, N-[[(5S)-2-Oxo-3-(1,2,4,5-tetrahydro-3,3-dioxido-3-benzothiepin-7-yl)-5-oxazolidinyl]methyl]acetamide]
11 | 0.5 (≈ 1.49 µM) |  | CC(=S)NC[C@H]1CN(c2ccc3c(c2)CCSCC3)C(=O)O1 [Example 49, N-[[(5S)-2-Oxo-3-(1,2,4,5-tetrahydro-3-benzothiepin-7-yl)-5-oxazolidinyl]methyl]ethanethioamide]
12 | 1 (≈ 2.71 µM) |  | CC(=S)NC[C@H]1CN(c2ccc3c(c2)CCS(=O)(=O)CC3)C(=O)O1 [Example 50, N-[[(5S)-2-Oxo-3-(1,2,4,5-tetrahydro-3,3-dioxido-3-benzothiepin-7-yl)-5-oxazolidinyl]methyl]ethanethioamide]
